Read-outs that look alike come from different tables or passages of the source. Square brackets hold non-standard residues; d marks the D form. Peptide text beside a SMILES is read from it. Sar = CNCC(=O)O
Tests used:
[1] = system: hypoxic ischemic brain injury; type: in vivo, Wistar rat
[2] = system: complement-mediated hemolysis of transfused huRBCs; experiment: AIHTR Wistar rat model, 15% xenotransfusion of human RBCs; type: in vivo; details: CVF 130 μg I.P. 24 hours prior to transfusion
Protocol: This process generates 1 ml huRBCs at 80% hematocrit, which was given as a 15% transfusion to the rats.
Plasma generated from the above experiments was analyzed for the free hemoglobin using spectrophotometry, as described previously (Shah et al. “Clinical hypothermia temperatures increase complement activation and cell destruction via the classical pathway.” J Transl Med 2014; 12:181.).

acute kidney injury = experiment: Acute kidney injury after xenotransfusion in AIHTR rat model (IVIG vs PIC1); type: in vivo; details: prophylaxis 40 mg/animal
Protocol: For both experiments, animals allotted to the saline control group received NS prior to huRBC transfusion whereas the CVF group received 130 μg CVF (Complement Technologies, Inc.) intra-peritoneum (I.P.) 24 hours prior to the huRBC transfusion.
Using weight-based doses of ketamine and acepromazine, animals were sedated throughout the course of the experiment with periodic monitoring of vital signs. Blood samples were collected into EDTA microtainer tubes (BD) from the animals prior to the huRBC transfusion and then at 30 seconds, 5 minutes, 20 minutes, 60 minutes and 120 minutes after the huRBC transfusion. […] These samples were kept shaking at room temperature prior to processing and centrifuged at 2655×g for five minutes to separate out the plasma and sediment the RBCs. Plasma was aliquoted and the RBC pellet was processed separately as described below. Upon completion of the final (120 minutes or 360 minutes) blood draw, the animal was euthanized using Fatal Plus (Vortech). A necropsy was completed to collect organs (liver, spleen and bilateral kidney) for histopathology. […] Hematoxylin and eosin (H&E) stained sections were reviewed by a blinded pathologist.
To ascertain if the intravascular toxic free Hb would cause acute kidney injury, the animals were monitored for 6 hours post-transfusion.

[3] = for ALT / AST / AlkPhos / BUN / Bilirubin / CPK / Creatinine / GGT / Lipase / Platelets / RBC / WBC: rats
Protocol: Toxicity studies were later performed with larger numbers of animals (n=18 in the treatment group) using a high-dose at the upper end of the therapeutic range (PA-PEG24 (SEQ ID NO: 21) at 40 mg [160 mg/kg] i.v.). Eight animals were sacrificed at day 3, and ten were sacrificed at day 14.

Solubility in water = type: physicochemical
CV-1 cells = experiment: Toxicity in CV-1 cells
[4] = 60 mg [240 mg/kg] i.v.; for ALT / AST / AlkPhos / BUN / Bilirubin / CPK / Creatinine / GGT / Lipase / Platelets / RBC / WBC: rats, n = 6
HSV-1 = experiment: HSV-1-GFP infection of CV-1 cells, flow cytometry; type: cell-based, Herpes Simplex Virus Type 1; details: added to CV-1 cells before infection; 16 hours
Protocol: CV-1 cells were infected with HSV-1-GFP for 16 hours. Post-infection, CV-1 cells were detected by flow cytometry (FIG. 33). […] Acyclovir (the standard of care for severe HSV-1 infections) was also added as a control at the same molar ratio.

[5] = system: complement activation in factor B-depleted human sera; type: biochemical
Summary of the method: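 Peptides at 0.77 mM final in factor B-depleted human serum, or serially diluted in it, incubated 1 h at 37 °C. Then diluted into GVBS++ with sensitized sheep RBCs for 1 h at 37 °C, with hemolysis read at 412 nm. Percent lysis relative to serum-only control, soluble peptides normalized to water and insoluble ones to DMSO, triplicate means.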

[6] = 40 mg [160 mg/kg] i.v., 48 Hr, n = 8
[7] = 40 mg [160 mg/kg] i.v., Day14, n = 10
[8] = Table 7, PEGylated and sarcosine/alanine substitution peptides
[9] = Table 5, sarcosine substitution peptides

cobra venom factor [CVF]
brain injury ([1]; CVF injection before ligation/hypoxia): almost completely attenuated brain injury | systemic complement activity ([1]; CVF injection, for 72 hours after injection): almost completely eliminated | free hemoglobin in rat plasma [2]: low levels of free hemoglobin

Immune globulin intravenous [IVIG]
gross appearance of kidneys at necropsy (acute kidney injury): looked darker and enlarged | kidney weight (acute kidney injury): significant increase in weight compared to animals receiving PIC1 | gross hematuria / urine appearance (acute kidney injury; 6 hours post-transfusion): two of the three animals | kidney histopathology (acute kidney injury; H&E): early acute tubular necrosis

CC[C@H](C)[C@H](N)C(=O)N[C@@H](C)C(=O)N[C@@H](CC(C)C)C(=O)N[C@H](C(=O)N[C@@H](CC(C)C)C(=O)N[C@@H](CCC(=O)O)C(=O)N1CCC[C@H]1C(=O)N[C@H](C(=O)N[C@@H](CS)C(=O)N[C@@H](CS)C(=O)N[C@@H](CCC(N)=O)C(=O)N[C@@H](CCC(=O)O)C(=O)N[C@@H](CCCNC(=N)N)C(=O)N[C@@H](C)C(=O)N[C@@H](C)C(=O)NCCOCCOCCOCCOCCOCCOCCOCCOCCOCCOCCOCCOCCOCCOCCOCCOCCOCCOCCOCCOCCOCCOCCOCCOCCC(=O)O)[C@@H](C)CC)[C@@H](C)CC [PA-dPEG24]
blood chemistry assay results (CBC, superchem, coagulation) ([3]; 40 mg [160 mg/kg] i.v.): no differences between pretreatment, day 3 or day 14 values | organ histology ([3]; 40 mg [160 mg/kg] i.v., day 3 and day 14): no histological evidence for toxicity in any organ | single-dose toxicological evaluation ([3]; rat, in vivo): no safety concerns | ALT [3, 6]: 62.8 (±4.0) U/L | AST [3, 6]: 108 (±26) U/L | AlkPhos [3, 6]: 104 (±19) U/L | BUN [3, 6]: 17.8 (±3.2) mg/dL | Bilirubin [3, 6]: 0.1 (±0) mg/dL | CPK [3, 6]: 538 (±128) U/L | Creatinine [3, 6]: 0.3 (±0) mg/dL | GGT [3, 6]: 1.0 (±0) U/L | Lipase [3, 6]: 11.8 (±1.5) U/L | Platelets [3, 6]: 987 (±93) 10^3/μL | RBC [3, 6]: 5.8 (±0.5) 10^6/μL | WBC [3, 6]: 6.0 (±3.0) 10^3/mL | ALT [3, 7]: 77.4 (±13.9) U/L | AST [3, 7]: 111 (±14) U/L | AlkPhos [3, 7]: 115 (±56) U/L | BUN [3, 7]: 13.2 (±1.9) mg/dL | Bilirubin [3, 7]: 0.1 (±0) mg/dL | CPK [3, 7]: 592 (±163) U/L | Creatinine [3, 7]: 0.3 (±0) mg/dL | GGT [3, 7]: 1.1 (±0.4) U/L | Lipase [3, 7]: 6.4 (±1.3) U/L | Platelets [3, 7]: 825 (±229) 10^3/μL | RBC [3, 7]: 6.6 (±0.4) 10^6/μL | WBC [3, 7]: 7.3 (±2.5) 10^3/mL | solubility in water / aqueous solutions (Solubility in water): soluble in water | Solubility in water (Solubility in water; Table 6, PEGylated PA peptides): Yes | Solubility in water (Solubility in water; [8]): Yes | toxicity in CV-1 cells (CV-1 cells): minimal toxicity | organ histology ([4]; brain, heart, lungs, liver, spleen, kidneys, pancreas): Normal histology | blood work (CBC and complete blood chemistry) ([4]; first 24 hours, 48 hours, day 7 or day 14): No toxicities | ALT ([4]; 48 Hr): 44.0 (±10.4) U/L | AST ([4]; 48 Hr): 69.0 (±8.7) U/L | AlkPhos ([4]; 48 Hr): 194 (±29) U/L | BUN ([4]; 48 Hr): 15.8 (±2.1) mg/dL | Bilirubin ([4]; 48 Hr): 0.1 (±0) mg/dL | CPK ([4]; 48 Hr): 142 (±47) U/L | Creatinine ([4]; 48 Hr): 0.3 (±0) mg/dL | GGT ([4]; 48 Hr): 1 (±0) U/L | Lipase ([4]; 48 Hr): 10.3 (±1.5) U/L | Platelets ([4]; 48 Hr): 1045 (±156) 10^3/μL | RBC ([4]; 48 Hr): 5.3 (±0.3) 10^6/μL | WBC ([4]; 48 Hr): 10.5 (±2.9) 10^3/mL | ALT ([4]; Day7): 76.3 (±10.9) U/L | AST ([4]; Day7): 84.3 (±6.74) U/L | AlkPhos ([4]; Day7): 147 (±34) U/L | BUN ([4]; Day7): 13.5 (±1.64) mg/dL | Bilirubin ([4]; Day7): 0.1 (±0) mg/dL | CPK ([4]; Day7): 316 (±90) U/L | Creatinine ([4]; Day7): 0.4 (±0.1) mg/dL | GGT ([4]; Day7): 1 (±0) U/L | Lipase ([4]; Day7): 8.5 (±1.05) U/L | Platelets ([4]; Day7): 623 (±417) 10^3/μL | RBC ([4]; Day7): 5.8 (±0.5) 10^6/μL | WBC ([4]; Day7): 5.4 (±1.12) 10^3/mL | ALT ([4]; Day14): 55.8 (±5.6) U/L | AST ([4]; Day14): 104 (±15) U/L | AlkPhos ([4]; Day14): 154 (±42) U/L | BUN ([4]; Day14): 14.7 (±1.0) mg/dL | Bilirubin ([4]; Day14): 0.1 (±0) mg/dL | CPK ([4]; Day14): 580 (±172) U/L | Creatinine ([4]; Day14): 0.4 (±0.1) mg/dL | GGT ([4]; Day14): 1 (±0) U/L | Lipase ([4]; Day14): 9.7 (±2.0) U/L

Nc1nc2c(ncn2COCCO)c(=O)[nH]1 [Acyclovir, reference compound]
inhibition of HSV-1 infection / replication (HSV-1): never able to completely inhibit replication | toxicity in CV-1 cells (CV-1 cells): minimal toxicity

CC[C@H](C)[C@H](N)C(=O)N[C@@H](C)C(=O)N(C)CC(=O)N[C@H](C(=O)N[C@@H](CC(C)C)C(=O)N[C@@H](CCC(=O)O)C(=O)N1CCC[C@H]1C(=O)N[C@H](C(=O)N[C@@H](CS)C(=O)N[C@@H](CS)C(=O)N[C@@H](CCC(N)=O)C(=O)N[C@@H](CCC(=O)O)C(=O)N[C@@H](CCCNC(=N)N)C(=O)N[C@@H](C)C(=O)N[C@@H](C)C(=O)O)[C@@H](C)CC)[C@@H](C)CC [PA-L3Sar] (H-IA[Sar]ILEPICCQERAA-OH; N-terminus and C-terminus assumed)
Hemolysis (%) [5]: 87.36% | Solubility in water (Solubility in water; [9]): Yes

CC[C@H](C)[C@H](N)C(=O)N[C@@H](C)C(=O)N[C@@H](CC(C)C)C(=O)N[C@H](C(=O)N(C)CC(=O)N[C@@H](CCC(=O)O)C(=O)N1CCC[C@H]1C(=O)N[C@H](C(=O)N[C@@H](CS)C(=O)N[C@@H](CS)C(=O)N[C@@H](CCC(N)=O)C(=O)N[C@@H](CCC(=O)O)C(=O)N[C@@H](CCCNC(=N)N)C(=O)N[C@@H](C)C(=O)N[C@@H](C)C(=O)O)[C@@H](C)CC)[C@@H](C)CC [PA-L5Sar] (H-IALI[Sar]EPICCQERAA-OH; N-terminus and C-terminus assumed)
Hemolysis (%) [5]: 85.13% | Solubility in water (Solubility in water; [9]): Yes

CC[C@H](C)[C@H](N)C(=O)N[C@@H](C)C(=O)N[C@@H](CC(C)C)C(=O)N(C)CC(=O)N[C@@H](CC(C)C)C(=O)N[C@@H](CCC(=O)O)C(=O)N1CCC[C@H]1C(=O)N[C@H](C(=O)N[C@@H](CS)C(=O)N[C@@H](CS)C(=O)N[C@@H](CCC(N)=O)C(=O)N[C@@H](CCC(=O)O)C(=O)N[C@@H](CCCNC(=N)N)C(=O)N[C@@H](C)C(=O)N[C@@H](C)C(=O)O)[C@@H](C)CC [PA-I4Sar] (H-IAL[Sar]LEPICCQERAA-OH; N-terminus and C-terminus assumed)
Hemolysis (%) [5]: 93.19% | Solubility in water (Solubility in water; [9]): Yes

CC[C@H](C)[C@H](N)C(=O)N[C@@H](C)C(=O)N[C@@H](CC(C)C)C(=O)N[C@H](C(=O)N[C@@H](CC(C)C)C(=O)N(C)CC(=O)N1CCC[C@H]1C(=O)N[C@H](C(=O)N(C)CC(=O)N[C@@H](CS)C(=O)N[C@@H](CCC(N)=O)C(=O)N[C@@H](CCC(=O)O)C(=O)N[C@@H](CCCNC(=N)N)C(=O)N[C@@H](C)C(=O)N[C@@H](C)C(=O)O)[C@@H](C)CC)[C@@H](C)CC [Peptide E6SarC9Sar, IALIL(Sar)PI(Sar)CQERAA] (H-IALIL[Sar]PI[Sar]CQERAA-OH)
Hemolysis (%) [5]: 6.21% | Solubility in water (Solubility in water; [8]): Yes

CC[C@H](C)[C@H](N)C(=O)N[C@@H](C)C(=O)N[C@@H](CC(C)C)C(=O)N[C@H](C(=O)N[C@@H](CC(C)C)C(=O)N[C@@H](CCC(=O)O)C(=O)N1CCC[C@H]1C(=O)N[C@H](C(=O)N[C@@H](CS)C(=O)N(C)CC(=O)N[C@@H](CCC(N)=O)C(=O)N[C@@H](CCC(=O)O)C(=O)N[C@@H](CCCNC(=N)N)C(=O)N[C@@H](C)C(=O)N[C@@H](C)C(=O)O)[C@@H](C)CC)[C@@H](C)CC [PA-C10Sar]
Hemolysis (%) [5]: 56.18% | Solubility in water (Solubility in water; [9]): No

From patent US10005818B2, “Derivative peptide compounds and methods of use” (REALTA HOLDINGS, LLC, priority 2010, dated 2018)
